SMILES strings stand for the structures.

The term melting point denotes the temperature, or range, at which the solid turns liquid. For `Cc1c(SCc2ccc(-c3ccccc3)cc2)cnn(C(C)(C)C)c1=O`, the melting point lay within 112 to 115 °C. The figure for `Cc1ccc(S(=O)(=O)OCC2CCN(C(=O)c3cccc(C)c3)CC2)cc1` is 68 to 70 °C; for `COc1ccc2nc3ccc(C(=O)O)cn3c(=O)c2c1` it is 278 to 290 °C; for `CC1(C)OC2OC(CN3C(=O)C4(COc5cc6c(cc54)OCCO6)c4ccccc43)C3OC(C)(C)OC3C2O1` (stereo not drawn) it is 112 to 118 °C. The figure for `c1ccc(C(c2ccc3[nH]cnc3c2)n2ccnc2)cc1` (stereo not drawn) is 186 °C; for `O=C1CN2Cc3ccccc3-c3cccc1c32` it is 199 to 202 °C. `COc1ccc(-c2ccc3c(C(N)=O)nn(-c4ccc(S(N)(=O)=O)cc4)c3c2)cc1`: the melting point fell in the range of 258 to 259 °C. The figure for `CC1OC(O)CC(O)C1O` (stereo not drawn) is 102 to 105 °C; for `CCC=CCC=CCC=CCCCCCCCC(=O)OCC(COC(=O)CCCCCCCC=CCC=CCC=CCC)OCn1cnc2c(=O)[nH]c(N)nc21` (stereo not drawn) it is 242 to 243 °C; for `CC1(C)Cc2nc(C3CCCC3)c(C(=O)c3ccc(C(F)(F)F)cc3)c(-c3ccsc3)c2C(O)C1` (stereo not drawn) it is 179 to 182 °C. To `CC(=O)OCC1=C(C(=O)OC(C)(C)C)N2C(=O)C(NC(=O)Cn3ccnc3S(C)(=O)=O)C2SC1` (stereo not drawn) belongs 164 °C; to `Nc1ccccc1S(=O)(=O)N1CC=CC1`, 104 to 105 °C. To `C/C=C/c1ccc2c(NCc3ccc(NC(=O)c4ccc(F)cc4)cc3)nc(N(C)C)nc2c1` belongs 246 °C; to `CN(C)C=C1CN=Cc2ccccc2C1=O`, 131 to 133 °C. The compound `CNC(=O)[C@H]1CN(c2cc(F)c(N3CCOCC3)c(F)c2)C(=O)O1` had a melting point of 179 to 181 °C. To `Cc1nc2c3c(c(CO)cc2n1C)CCC1(Cc2ccccc2C1)N3` belongs 272 to 274 °C. To `C=CCN(CC=C)Cc1noc(-c2ncn3c2CN(C)C(=O)c2c(Cl)cccc2-3)n1` belongs 125 to 130 °C; to `COc1ccc(OC)c(-c2c(O)c3ccc(Cl)cc3[nH]c2=O)c1`, 280 to 282 °C. To `COc1ccc(N)cc1OCCCN1CCC(c2noc3cc(F)ccc23)CC1` belongs 94 to 95 °C; to `CCCCc1nn(-c2cc(NC(=O)OCCC)ccc2Cl)c(=O)n1Cc1ccc(-c2ccccc2S(=O)(=O)NC(=O)c2ccccc2Cl)cc1`, above 119 °C.

Compound `CNC(=C[N+](=O)[O-])NCCCCc1nc[nH]c1Br` gave a melting point of 145 to 148 °C. To `COc1ccc(N)cc1CNC(C)=O` belongs 123 to 125 °C. Take `C[C@@]1(F)[C@H](OC(=O)c2ccccc2)[C@@H](COC(=O)c2ccccc2)O[C@H]1n1cnc2c(Cl)nc(N)nc21`: the melting point fell in the range of 160 to 162 °C.

In turn, `COc1ccc(C(C)=O)c(CC(=O)O)c1` yielded a melting point of 153 to 155 °C. As to `CCCCc1ccc(C(=O)Nc2ccc3cc(CN4CCCC4)cnc3c2C)cc1`, the melting point amounted to 131 °C. `CCOC(=O)c1cc(CN)c[nH]1` registered a melting point of 78 to 79 °C. For the compound `COc1ccc(COc2cc3c(cc2-c2cc(C=CC(=O)O)ccc2O)C(C)(C)CCC3(C)C)cc1`, the melting point lay within 170 to 172 °C. To `CN(C)C(=O)c1nc(-c2ccccc2)nc2[nH]c3ccccc3c12` belongs 218 to 219 °C; to `OP(O)C(NC(c1ccccc1)c1ccccc1)c1ccc2c(c1)OCO2` (stereo not drawn), 194 to 195 °C. The figure for `O=C1CC2(SCCS2)C(=O)N1` is 112 to 115 °C. `COc1ccc2nc(Sc3ccc4c(c3)CC[C@H]3N(C)C(=O)CC[C@]43C)sc2c1` came in with a melting point of 102 to 107 °C. The figure for `Cc1cc(-c2nc3cccnn3c2-c2ccnc(NC(=O)c3ccncc3)c2)ccc1F` is 219 to 220 °C; for `Cc1ccc2c(c1)N(CC(=O)c1cccs1)C(=O)C(NC(=O)Nc1cccc(C(=O)O)c1)CN2C(=O)C(C)(C)C` (stereo not drawn) it is 198 to 206 °C. To `Cc1cc(C)c(/C=C2\C(=O)N(C(=O)CNC(=O)OCc3ccccc3)c3ccccc32)[nH]1` belongs 193 to 196 °C; to `c1ccc(N2CCN(CCCc3[nH]nc4c3CCCC4)CC2)cc1`, 92 to 94 °C.

Take `COC(=O)c1nccnc1Nc1ccccc1`: the melting point was 72 to 75 °C. The figure for `CC(C)CCCC(C)C1CCC2C3=CCC4C(C)(C)C(OC(=O)c5ccccc5)CCC4(C)C3CCC21C` (stereo not drawn) is 160 to 161 °C; for `Cc1cn(C)c2c1N(C(=O)CN1CCN(C)CC1)c1ccccc1NC2=O` it is 205 to 207 °C. Turning to `FC(F)(F)c1ccc2nc(CN3CCN(c4ccc(Cl)cc4)CC3)cn2c1`, the melting point lay in the range of 128 to 135 °C. In turn, `Nc1nccnc1C=O` returned a melting point of 110 to 114 °C. The figure for `COc1ccc(S(=O)(=O)C(CCCCc2ccccc2)C(=O)NO)cc1OC` (stereo not drawn) is 180 to 188 °C; for `CN(C)CC1Cn2cc(C(=O)NCc3ccc(Cl)cc3)c(=O)c3cc(CN4CCOCC4)cc(c32)O1` (stereo not drawn) it is 168 to 170 °C. The figure for `CNC(=O)c1cccc(NC(=O)Cc2cccc(Cl)c2)c1` is 165 to 166 °C; for `Cn1nc(C(F)(F)F)cc1Oc1cc(C#N)cc(-n2ccc(C(F)(F)F)n2)c1` it is 116 to 117 °C. To `COc1nscc1C(=O)O` belongs 182 to 185 °C. In turn, `COC(=O)C1Cc2c([nH]c3ccccc23)C(c2ccc(O)cc2)N1` (stereo not drawn) gave a melting point of 233 to 235 °C.

`Cn1c(C(F)(F)F)cc(=O)n(-c2ccc3snc(C4OCC(O)(CBr)CO4)c3c2)c1=O` (stereo not drawn) came in with a melting point of 105 to 110 °C. `NS(=O)(=O)c1cccc(-c2cccc(-c3nc(-c4ccc(C(F)(F)F)nc4)cc(C(F)F)n3)c2)c1` came in with a melting point of 222 °C. The figure for `CC(O)C(C)C1=C2C(C)(C)C3CCC2(C3)C(C)(C)CC1` (stereo not drawn) is 119 to 121 °C.

`CC(=O)CCC(CCC(C)=O)(C(C)=O)C(C)=O` displayed a melting point of 59 °C. The figure for `COc1cc(CCCC(O)C(=O)OC(C)C)ccc1OCc1nc(-c2ccco2)oc1C` (stereo not drawn) is 75 to 76 °C; for `O=C(O)C1=Cc2ccc(OCc3ccccc3)cc2CC1` it is 202 to 205 °C. `Cc1cc(N)n(-c2ccc(Cl)c(Cl)c2)n1` had a melting point of 110 to 112 °C. In the case of `CS(=O)(=O)c1cc(-c2nc(=O)c3ccccc3s2)ccn1`, the melting point was in the range of 190 to 192 °C.

In turn, `CCOC(OCC)c1cc(NC(c2ccccc2)(c2ccccc2)c2ccccc2)c(F)c(C2CCCO2)n1` (stereo not drawn) displayed a melting point of 149 to 150 °C. To `Cc1c(-c2ccccc2)oc2c(C(=O)NCCCN3CCC(n4c(=O)[nH]c5ccccc54)CC3)cccc2c1=O` belongs 238 to 241 °C; to `COC(=N)CCCCc1csc(NC(=N)N)n1`, 143 to 145 °C.

On to `Cc1nnc(-c2sc(N3CCN(Cc4ccc(F)cc4)C3=O)nc2C)[nH]1`, for which the melting point is 248 to 249 °C. To `CNC(=O)Nc1ccc(-c2ccncc2)c(C)n1` belongs 213 to 214 °C. To `CCCCCCCCCCCC(=O)Nc1ccc(O)c(C(=O)O)c1` belongs 201 to 205 °C; to `O=c1c(-c2ccccc2)c[nH]n1-c1ncccn1`, 159 to 160 °C; to `Cc1c[nH]c2c(Sc3nc4cc(Cl)ccc4[nH]3)ccc([N+](=O)[O-])c12`, 252 to 253 °C. The figure for `O=[N+]([O-])c1ccc2c(c1)O[C@@H](CNCc1ccccc1)CO2` is 98 °C. For the compound `Cc1nc2[nH]c(=O)[nH]c2cc1-c1ccc(NC(=O)C(F)(F)F)cc1`, the melting point was above 300 °C. The figure for `COc1ccc(CNc2n[nH]c(N)c2C#N)cc1` is 148 to 149 °C; for `O=C(O)C1CSC(c2ccc(OCCO[N+](=O)[O-])cc2)N1` (stereo not drawn) it is 139 to 141 °C; for `O=c1oc(-c2ccc(OCCc3ccccc3)cc2)cc(O)c1SCCc1ccccc1` it is 103 to 106 °C. With `CCOC(=O)COc1ccc(C[C@H](C)NS(=O)(=O)c2ccccc2)cc1`, the melting point was 109 to 110 °C. The figure for `COC(=O)c1nc(CN(C)C)n(-c2ccc(Cl)cc2C(=O)c2ccccc2)n1` is 118 to 121 °C; for `O=c1c(Br)c(OCc2ccccc2)ccn1CCc1cccs1` it is 128 to 130 °C. To `CC(=O)Nc1ccc(/C(=C/N2CCOCC2)C(=S)N2CCOCC2)cc1` belongs 145 to 147 °C; to `Clc1nc(C2CC2)nc(N2CCOCC2)n1`, 99 to 100 °C. To `C[C@H]1Cn2c(=O)[nH]c3ccc(Br)c(c32)CN1C(=O)OC(C)(C)C` belongs 229 °C.

`O=[N+]([O-])c1ccc(NCCc2ccccc2)c(S(=O)(=O)CCO)c1` showed a melting point of 95 to 95.5 °C. To `COc1ccc(N2C(=O)Cc3ccccc32)cc1Cl` belongs 165 to 167 °C; to `O=C(NC(Cc1ccccc1)C(=O)O)c1cc2cc(Cl)ccc2[nH]1` (stereo not drawn), 248 to 255 °C. The figure for `COC(=O)C(C)(C)Cc1ccc(-c2ccc(CC(C)(C)C(=O)OC)cc2)cc1` is 68 to 70 °C; for `COc1ccc(OC2=CCNCC2)cc1` it is 45 to 46 °C. To `COc1ccc(C=O)cc1NC(=O)OCC1c2ccccc2-c2ccccc21` belongs 139 to 142 °C; to `Clc1ccc2nc(Cl)c(I)n2c1`, 234 to 235 °C; to `CCN(CC)C(=O)c1cc(C)nc([N+](=O)[O-])c1`, 90 to 91 °C. In the case of `O=C1COC2(CCN(CCC3COc4ccccc4O3)CC2)CN1` (stereo not drawn), the melting point was 139 to 140 °C.

For the compound `CC(C)NCC(O)COc1ccc2c(=O)cc(-c3ccc(O)c(O)c3)oc2c1` (stereo not drawn), the melting point came out at 187 °C. The figure for `Cc1cccc(NC(=O)NC2N=C(C3CCCC3)c3ccccc3N(Cc3ncccc3C)C2=O)c1` (racemic) is 198 to 199 °C; for `COc1nc(C)cnc1NS(=O)(=O)c1ccccc1-c1ccc(C)cc1` it is 184 to 185 °C; for `COc1cc(C(=O)N2Cc3ccc(C(=O)NCc4ccc(Cl)cc4)n3Cc3ccccc32)ccc1-c1ccccc1C` it is 218 to 219 °C.

`Nc1ccccc1SCC(C(=O)O)c1ccc(C(F)(F)F)cc1` (stereo not drawn) registered a melting point of 138 °C. The figure for `Cn1c(=O)oc2c(OC3CCCCO3)cccc21` (stereo not drawn) is 128 to 129 °C.

Source of the values: a melting point compilation (Tetko et al.; mined from patent text by program, amines drawn as free bases though some values may be those of a salt).
